Measured values reported in patent publication US8778889B2, “Antimicrobial decapeptide oral hygiene treatment” (The United States of America as represented by the …, priority 2003, dated 2014).
Ends that are not written are not given here.

Assays:
[1] = Interaction (adsorption) with hydroxyapatite discs in artificial saliva; format: physicochemical; conditions: KSL 0.5 mg/ml, 8 untreated HA discs, 37° C.
Description: Affinity of KSL to tooth-like materials was assessed by allowing the KSL to interact with HA discs (Size: 0.38″ diameter×0.06-0.08″ thick) in artificial saliva at 37° C. To simulate the tooth surface, the HA discs were pretreated in filtered human saliva for 2 hours (4 HA discs/4 mL of human saliva). Whole human saliva was collected from three healthy male donors in the morning prior to breakfast. After collection, the saliva was immediately centrifuged at 12,000 rpm for 20 min and the supernatant was filter through a 0.45 μm membrane filter. The HA discs, after conditioning with human saliva, were rinsed with artificial saliva and added to 4 ml of KSL solutions (0.5 mg/ml in artificial saliva) at 37° C. As a control, untreated HA discs were directly added to KSL solutions at 37° C. The sample vials were mounted on a rotary wheel with vertical rotation at a speed of 18 cycles/min. Samples were removed at predetermined times, centrifuged and the supernatants were analyzed by RP-HPLC.

A. baumannii WRAMC #14 = format: cell-based, Acinetobacter baumannii
Description: (§1) As shown in the table below, many drug-resistant pathogens including multidrug-resistant Acinetobacter baumannii (clinical isolates) were susceptible to the bactericidal activity of the newly developed antimicrobial peptides. […] This is shown by their lower MIC and MBC against a number of antibiotic-resistant bacteria including methicillin-resistant Staphylococcus aureus, vancomycin-resistant Enterococci, and multidrug-resistant Acinetobacter baumannii. Many of these resistant strains are involved in nosocomial infections, which affect the immunocompromised and the elderly individuals with weakened defenses. The tests were done in a broth microdilution assay as described in our earlier publication (Concannon et al., 2003).

A. baumannii WRAMC #19 = format: cell-based, Acinetobacter baumannii
Description: as §1

A. baumannii WRAMC #17 = format: cell-based, Acinetobacter baumannii
Description: as §1

A. baumannii WRAMC #11 = format: cell-based, Acinetobacter baumannii
Description: as §1

A. baumannii WRAMC #15 = format: cell-based, Acinetobacter baumannii
Description: as §1

A. baumannii WRAMC #5 = format: cell-based, Acinetobacter baumannii
Description: as §1

A. baumannii WRAMC #8 = format: cell-based, Acinetobacter baumannii
Description: as §1

A. baumannii WRAMC #16 = format: cell-based, Acinetobacter baumannii
Description: as §1

[2] = tested on: oral biofilms formed by salivary bacteria on saliva-conditioned Ge surfaces; assay: Dual flow cell oral biofilm development (DIC microscopy); format: cell-based, human salivary bacteria
Description: The dual flow cell system used in this study was modified from the chemostat flow cells of Herles et al. (Herles et al., 1994) and constructed according to our design and specifications by BioSurface Technologies (Bozeman, Mont.) (FIG. 1). The flow cell consisted of two compartments, each containing a polycarbonate flow chamber with three recesses to hold the Ge disks (10 mm in diameter and 1.8 mm in thickness) upon which biofilms were formed. Ge disks provided reflective surfaces that allowed the visualization of unstained biofilms using differential interference contrast (DIC) microscopy.
To form biofilms, Ge disks (Mindrum, Rancho Cucamonga, Calif.) in the dual flow cell were conditioned for one hour with sterile 50% human whole saliva. Isolated salivary bacteria, adjusted to approximately 1.0×10^7 cells/ml in 50% saliva (total, 1.5 ml), were injected into the flow chambers. After two hours of initial adherence of bacteria onto disk surfaces, the flow of culture medium (20% Todd-Hewitt broth) was started at a rate of 0.2 ml/min (Foster et al., 2004). The flow rate employed generated a shear rate of approximately 9.65 s^−1 on the substrate surface, and is compatible with the fluid flow in the oral cavity (Bakker et al., 2003).
To evaluate the effects of KSL in controlling the development and maturation of oral biofilms, surface adhered cells (after initial colonization) were perfused continuously with KSL-free or KSL-containing media (KSL at 10 or 50 μg/ml). Alternatively, biofilms at different stages of maturation (i.e., 4, or 6 h after inoculation) were pulse-treated using an injection pump at 0.2 ml/min with 50 μg/ml KSL in 20% THB or the control medium for 30 min at 2 hr intervals. Direct comparison of the effects of antimicrobials on the growth of biofilms between treated versus untreated was made in real-time by DIC microscopy.

[3] = Description: The chewing gum formulations were prepared following a procedure described previously. The gum base was heated at a temperature between 50 and 60° C. for melting. When the gum base was of the proper fluid consistency, the KSL was added as a fine powder along with the other components. The temperature was kept constant while mixing the components with the gum base in a mortar. After mixing, the homogenous chewing gum mixture was extruded, cut into squares of approximate shape and size and hardened at room temperature overnight. The composition of the gum was as follows: 550 mg of gum base, 420 mg of sorbitol, 10 mg of mannitol, 10 mg of saccharin, and 10, 20 or 30 mg of KSL (total weight: approximately 1 g). In vitro release study of KSL from chewing gums was carried out using an in vitro chewing release apparatus consisting of two modules (AB FIA, Lund, Sweden) (FIG. 1). Each module consists of a thermostatted glass cell in which two vertically oriented pistons holding an upper and a lower chewing plate are mounted. The cells were filled with 40 ml of artificial saliva and the chewing gum was loaded onto the lower chewing surface. […] The released amount of KSL was determined by RP-HPLC.
VRE WRAMC #6 = format: cell-based, Enterococci
Description: as §1

VRE VVRAMC #7 = format: cell-based, Enterococci
Description: as §1

VRE ATCC #51299 = format: cell-based, Enterococci
Description: as §1

VRE WRAMC #3 = format: cell-based, Enterococci
Description: as §1

With “KKVVFKVKFK-NH2 [KSL, Lys-Lys-Val-Val-Phe-Lys-Val-Lys-Phe-Lys-NH2]” the “KSL adsorbed to HA discs” value [1] was “approximately 20%”, the “time to adsorption equilibrium” value [1] was at most 5 min and the MBC (A. baumannii WRAMC #14) was 100 µg/mL. It also gave an MBC (A. baumannii WRAMC #19) of 50 µg/mL, an MBC (A. baumannii WRAMC #17) of 100 µg/mL and an MBC (A. baumannii WRAMC #11) of 200 µg/mL. It also gave an MIC (A. baumannii WRAMC #11) of 100 µg/mL, an MBC (A. baumannii WRAMC #15) of over 200 µg/mL and an MIC (A. baumannii WRAMC #15) of 100 µg/mL. The MBC (A. baumannii WRAMC #5) was 50 µg/mL, the MBC (A. baumannii WRAMC #8) was 100 µg/mL and the MBC (A. baumannii WRAMC #16) was 25 µg/mL. For the same substance, the “effect on oral biofilm development” value ([2]; continuous perfusion, KSL at 10 μg/ml) was “partially effective in inhibiting biofilm formation”, the “effect on oral biofilm development” value ([2]; continuous perfusion, KSL at 50 μg/ml) was “disrupted biofilm development” and the “effect on oral biofilm development” value ([2]; pulsed treatment (30 min every 2 h, 50 μg/ml) starting 4 h after inoculation) was “inhibited biofilm formation”. The “effect on oral biofilm development” value ([2]; pulsed treatment (30 min every 2 h, 50 μg/ml) starting 6 h after inoculation) was “failed to inhibit the development of biofilm structures”, the “stability of KSL during the gum manufacturing process (HPLC of released KSL)” value [3] was “remains stable” and the MBC (VRE WRAMC #6) was 100 µg/mL. The MBC (VRE VVRAMC #7) was 100 µg/mL, the MBC (VRE ATCC #51299) was over 200 µg/mL and the MIC (VRE ATCC #51299) was over 200 µg/mL. The MBC (VRE WRAMC #3) was over 200 µg/mL and the MIC (VRE WRAMC #3) was over 200 µg/mL.
